US20260166211A1, “SYSTEM FOR REMOVING PROTEIN BOUND UREMIC TOXINS DURING HEMODIALYSIS” (University of Washington, priority 2022, published 2026)
Read-outs that look alike come from different tables or passages of the source. One block for each compound: values may come before it.

Key:
[1] = molecular target: T1, human albumin (HA) (Homo sapiens, UniProt P02768); assay: SPR adsorption and desorption cycles of HA on functionalized chips with release agents; format: binding; details: for SPR angle shift after HA binding: 2 mg/mL HA, functionalized SPR chip; for Release percentage (highest observed; %) NaSCN (2M): release agent NaSCN 2M; for Release percentage (highest observed; %) SDS (35 mM): release agent SDS 35 mM; for Release percentage (highest observed; %) pH 3.6: release by pH 3.6 buffer; for release of bound HA, SPR results: CB chips, quoted for comparison with column
Experimental: SPR tests: A temperature controlled NanoSPR8 Model 481 device with a 4-channel flow cell was used and calibration and warm up were performed (2 hr) prior to tests. Two flow cell channels were set as reference in all tests. Basic solution with surfactant (0.1 M NaOH and 1% SDS). acidic solution (0.1 M HCl), and water were used to clean the testing flow cell and tubing system.
A phosphate buffer solution (PB) for SPR studies was prepared by dissolving 21.48 g Na2HPO4 and 3.11 g KH2PO4 in 1 L Milli-Q water for SPR tests. With this buffer a variety of solutions were prepared: NaCl. Na2SO4 and NaSCN was dissolved in the PB to prepare a 2 M solution. Sodium dodecyl sulfate (SDS) solution of 1 wt % (˜35 mM) was prepared by dissolving SDS in PB with aid of bath sonication. Fatty acid solutions were made by pipetting fatty acid into PB and bath sonicating. Linoleic acid solution (LA) included 1.8 μL of LA and 10 mL PB. Fatty acid mix solution (FA mix) was prepared by dispersing 1.8 μL linoleic acid, 1.05 μL oleic acid and 1.08 μL palmitic acid in 10 mL PB. FA mix was an inhomogeneous emulsion due to the limited solubility of fatty acids even with the aid of bath sonication.
[…] The test was carried out in sequence of HA solution, buffer rinse, releasing agent rinse, buffer rinse, in cycles after an initial PB rinse. Three absorption and desorption cycles were performed on each sample for repeatability/stability. The first two cycles used the same release agents of interest and the third cycle used a reference release agent, usually 2 M NaSCN.
Percentage of HA released by different release agents was calculated by dividing the value difference between the […] adsorption SPR peak shift value (‘Adsorb’ in FIG. 7) and post-release signal value (‘Release’ in FIG. 7) using
SPR shift has a strong dependence on solution conditions, thus one can only compare shift signals after a buffer rinse. The initial sensor baseline is set to zero. For the first cycle, after initial HA exposure and buffer rinse a shift of 0.225 is seen corresponding to full HA coverage. After LA exposure and buffer rinse a drop in shift 0.122 is seen instead of the ideal zero if HA is completely released to initial state. The percent released is calculated as (0.225-0.122)/0.225 or ˜46%. […] Even though the total amount of captured protein remains stable, an increasing amount of un-released protein over cycles was observed. Un-releasable protein was expected due to fouling onto unprotected surface of desorbed surface chemistry and practical limitations of buffer rinse times. […] SPR angle shifts and releasability percent as a function of surface functionalization and release chemical are summarized in Table 2.

[2] = molecular target: T1, human albumin (HA); assay: SPR Langmuir isotherm of HA adsorption on ligand-functionalized sensor chips; format: binding; details: read-out: Kd of HA on SPR sensor modified with different ligands
Experimental: Langmuir Isotherm: HA was dissolved in PB to make solutions with concentration range from 0.1 mg/mL to 2.0 mg/mL for adsorption study. Such HA solutions were pumped through the flow cell in low to high sequence with 20 min. adsorption time for each solution. Between each HA adsorption session, buffer was used to rinse off unbound protein residue for 20 min. PB signal from selected reference channels was used as baseline.
Prior to further analysis, the raw SPR data, absolute maximum absorption angle versus time, was referenced to a baseline reading. A 3-point running average was applied to reduce noise.
The values of SPR signal shift (in degrees) induced by HA solutions of different concentrations were manually identified. For Langmuir adsorption model fitting, the SPR signal shifts were converted to fractional occupancy of adsorption sites (θ) by assuming 0% and 100% site occupancy under 0 mg/mL and 2 mg/mL HA solution treatment, respectively. After plotting the concentration on x-axis and θ on y-axis, the data was fitted to a Langmuir isotherm model with equation
The adsorption constant, Ka, was obtained under the best fitting condition. The desorption constant.

[3] = cited from earlier work
[4] = molecular target: HSA (Homo sapiens, UniProt P02768); assay: HSA adsorption/desorption on Cibacron blue column with LA solutions of varying concentration; format: binding; details: LA 8 μl/10 ml, HSA 40 mg/ml, CB beads
Experimental: To test the aforementioned hypotheses, a series of experiments were conducted using LA solutions of varying concentrations and HSA solutions with a concentration of 40 mg/ml. […] The first adsorption-desorption cycle was executed with phosphate buffer serving as a mock release agent to reveal the actual desorption strength of the release agent. The amount of HSA released by LA was quantified by integrating the area beneath the release session curve and subtracting the baseline corresponding to the phosphate buffer rinse. This value represents the fraction of HSA that can be manipulated by the LA solution in a reversible manner. In this context, the adsorption of this fraction of HSA onto the Cibacron blue functionalized beads (CB beads) was considered reversible by LA. Subsequently, the reversible adsorption capacity of CB beads and the albumin release peak height, from FIG. 11A, were plotted against the LA solution concentration, as shown in FIG. 11B.

[5] = molecular target: T2, human albumin indoxyl sulfate complex (HA-IS) (Homo sapiens, UniProt P02768); assay: Adsorption column of CB-functionalized agarose beads with HA-IS, BCA assay of eluent; format: binding; details: for release of HA bound to the column: release capacity compared to binding capacity
T2 construct: purchased Sigma-Aldrich
From the text: Adsorption column (set-up): Devcon 5-minute epoxy in Dev-tube (ITW Polymer Adhesives, USA) was used on all epoxied parts of the column and was allowed to cure for an hour before use. Agarose beads functionalized with Cibacron Blue dye and suspended in 20% ethanol and 0.1 M KH2PO4 (Blue Sepharose Fast Flow 6, GE Healthcare, USA) was obtained and used as-is.
As shown at FIGS. 5A and 5C, glass tube 15a holds agarose beads functionalized with human albumin binding chemistry Cibacron Blue dye, and a barbed inlet/outlet 15b with Luer lock and needle tip is included to flow a solution in and out of glass tube 15a. An interchangeable solution reservoir feed 15c is included. Specifically, glass tube 15a (inner diameter=4 mm) was cut to 4.1 cm (0.52 mL volume). Two sheets of 10.0 μm pore size Teflon membrane filters (Sterlitech Corp., USA) covered the eluent end of the tube and were sealed around the edge with larger diameter elastic tubing (Tygon SE-200, Saint-Gobain Corp., USA) with excess membrane trimmed by knife. The tubing was secured to the tube via glass-compatible glue (Loctite, Henkel AG & Co. KGaA. Germany) and then epoxied to prevent air leakage. The beads in their suspension fluid (0.739 mL total slurry) were pipetted into the tube on top of the membrane seal and drained to form a bed of beads. The other end of the tube was sealed with membrane filters and tubing in a similar manner. Both ends 15b of the bead bed tube were connected to a Luer lock needle assembly that were epoxied to input tubing to prevent fluid leakage. The solution reservoir 15c included a syringe and a Luer lock connection. The column was suspended vertically and syringe pump (Model NE 300, New Era Pump Systems, Inc., USA) set to 4.0 mL/min with 125-250 μL samples collected at time points with lag time experimentally accounted for. Replacing of solutions occurred by switching out the syringe at the base of the Luer lock needle assembly in 15b, ensuring no air bubbles were introduced.
A phosphate buffer (PB) (pH 7.4) for the adsorption column was prepared to mimic the salt composition of human blood serum. 144.3 mg/L CaCl2), 4.26 g/L Na2HPO4, 612.4 mg/L KH2PO4, 85.7 mg/L MgCl2, and 4.68 g/L NaCl were dissolved in HPLC-grade submicron filtered water under stirring and heat, then filtered through a 10.0 μm membrane filter. NaCl was purchased from EMD Chemicals Inc. (Germany): all other chemicals were obtained from Sigma-Aldrich (USA). NaSCN, indoxyl sulfate, and HA solutions were prepared by simple dissolution in PB. 0.58 mM linoleic acid (LA) solution was prepared by pipetting liquid LA into phosphate buffer and sonicating in 10-minute increments until micelles were formed and evenly distributed, indicated by the solution becoming uniformly cloudy. Solutions of micro BCA protein assay were prepared as instructed in a kit obtained from Thermo Scientific (USA).
In cycles, phosphate buffer, HA-IS complex solution, phosphate buffer, and then release agents (linoleic acid or NaSCN) were pumped through the column and the eluent was collected. CB-functionalized beads were expected to adsorb HA-IS and cause the dissociation of IS from the captured HA. Release agents were expected to cause desorption of captured IS-free HA from the adsorption column. These adsorption and desorption behaviors were studied by optical absorbance at 280 nm of the eluent proportional to HA-IS concentration. […] Then both LA and NaSCN release HA from the adsorption column. […] Without wishing to be bound by theory, it is thought that the delayed LA release was caused by LA micelles dissolving at the buffer solution exchange front where concentration drops below the critical micelle concentration (0.1 mM) giving more free-floating molecules of LA capable of release. This release profile may be optimized by multiple shorter buffer/LA cycles.
Bicinchoninic acid (BCA) assay is a protein sensitive quantification method which was used in this example to measure the concentration of HA. […]

[6] = with respect to a monolayer protein binding signal strength

T2 sequence (P02768 25-609, one chain of several): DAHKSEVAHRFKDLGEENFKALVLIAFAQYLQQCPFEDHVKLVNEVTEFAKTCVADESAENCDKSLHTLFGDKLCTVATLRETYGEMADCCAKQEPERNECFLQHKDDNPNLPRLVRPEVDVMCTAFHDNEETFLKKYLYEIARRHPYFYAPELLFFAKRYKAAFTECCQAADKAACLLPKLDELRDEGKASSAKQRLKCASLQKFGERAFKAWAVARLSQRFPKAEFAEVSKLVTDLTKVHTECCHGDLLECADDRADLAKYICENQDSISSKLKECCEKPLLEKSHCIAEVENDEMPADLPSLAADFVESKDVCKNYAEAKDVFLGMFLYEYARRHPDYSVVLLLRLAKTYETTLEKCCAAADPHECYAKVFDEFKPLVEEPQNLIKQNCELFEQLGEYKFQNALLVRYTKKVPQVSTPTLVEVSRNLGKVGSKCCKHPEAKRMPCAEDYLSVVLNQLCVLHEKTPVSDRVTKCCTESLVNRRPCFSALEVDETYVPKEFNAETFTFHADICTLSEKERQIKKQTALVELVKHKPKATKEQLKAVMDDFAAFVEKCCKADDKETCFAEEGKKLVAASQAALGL
T1 sequence (P02768 25-609): as the sequence (P02768 25-609, one chain of several) above
Sequence of HSA (P02768 25-609): as the sequence (P02768 25-609, one chain of several) above

Compound: Nc1c(S(=O)(=O)O)cc(Nc2ccc(Nc3nc(Cl)nc(Nc4ccccc4S(=O)(=O)O)n3)c(S(=O)(=O)O)c2)c2c1C(=O)c1ccccc1C2=O [Cibacron Blue]
SPR angle shift after HA binding ([1]; listed as CB): 0.25 ° | SPR angle shift after HA binding ([1]; listed as Cibacron Blue (CB)): ~0.25 ° | monolayer averaged SPR signal shift ([1]; average over chips (CB n=76; capric acid n=50)): 0.23 ° | Release percentage (highest observed; %) Na2SO4 (2M) ([1]; release agent Na2SO4 2M): 12.7% | Release percentage (highest observed; %) NaCl (2M) ([1]; release agent NaCl 2M): 34% | Release percentage (highest observed; %) NaSCN (2M) [1]: 78.0% | Release percentage (highest observed; %) SDS (35 mM) [1]: 93.0% | Release percentage (highest observed; %) FA mix ([1]; release agent fatty acid mix): 49.5% | Release percentage (highest observed; %) lbp (0.1 mM) ([1]; release agent lbp 0.1 mM): 0% | Release percentage (highest observed; %) LA (0.6 mM) ([1]; release agent linoleic acid 0.6 mM): 44.1% | Release percentage (highest observed; %) pH 3.6 [1]: 0% | Human serum albumin desorption percent, release agent Fatty Acid Mix [1, 6]: 37.4 ± 14.2% | Human serum albumin desorption percent, release agent Linoleic Acid [1, 6]: 31.0 ± 18.9% | Human serum albumin desorption percent, release agent NaSCN [1, 6]: 65.0 ± 12.3% | Kd [2]: 3 µM

Compound: Nc1ccc2c(O)c(N=Nc3ccc(N=Nc4ccc(N=Nc5cc(S(=O)(=O)[O-])c6cccc(S(=O)(=O)[O-])c6c5)c5ccccc45)c4ccc(S(=O)(=O)[O-])cc34)c(S(=O)(=O)[O-])cc2c1.[Na+].[Na+].[Na+].[Na+] [Direct Blue 71]
SPR angle shift after HA binding [1]: ~0.19 ° | SPR angle shift after HA binding ([1]; listed as DB71): 0.19 ° | Release percentage (highest observed; %) NaSCN (2M) [1]: 0% | Release percentage (highest observed; %) SDS (35 mM) [1]: 0% | Kd ([2]; HA 0.1-2.0 mg/mL in PB, Langmuir fit, Kd=1/Ka): 1.1 µM

Compound: CCCCC/C=C\C/C=C\CCCCCCCC(=O)O [LA, linoleic acid]
solubility in water [3]: insoluble | HSA desorption capacity [4]: 19.44 mg/ml beads | release capacity ([5]; CB-agarose bead column, summary b116): ~0.2 μmol HA/mL beads | release capacity ([5]; CB-agarose bead column, summary b116, per mL beads): 13.5 mg/mL | release amounts ([5]; Cibacron blue agarose beads, plasma compatible linoleic acid as release agent): 0.23 μmol HA/mL beads | release capacity ([5]; cycle 1, CB-agarose bead column, BCA assay): 0.177 μmol HA/mL beads | release capacity ([5]; cycle 2, CB-agarose bead column, BCA assay): 0.232 μmol HA/mL beads | release of HA bound to the column [5]: at least 47% | HSA desorption capacity, previous study ([5]; value from the previous study): 15.3 mg/ml beads | release of bound HA, SPR results ([1]; SPR): 31% | albumin release capacity on CB surface ([1]; SPR, CB surface, concentrations of about 0.5 μg/mL): 44.1%

Compound: N#C[S-].[Na+] [NaSCN, reference compound]
release capacity ([5]; cycle 3, CB-agarose bead column, BCA assay): 0.292 μmol HA/mL beads | release of HA bound to the column [5]: ≥ 79% | release of bound HA, SPR results ([1]; SPR): 65%

The next lines start with the values.

SPR angle shift after HA binding [1]: ~0.11 ° | SPR angle shift after HA binding ([1]; listed as Octane): 0.110 ° | Release percentage (highest observed; %) NaSCN (2M) [1]: 51.4% | Release percentage (highest observed; %) SDS (35 mM) [1]: 29.5%
Compound: CCCCCCCC [Octane (C8; Alkane), Octane]

SPR angle shift after HA binding [1]: ~0.19 ° | SPR angle shift after HA binding ([1]; listed as tryptophan of —COOH terminus): 0.19 ° | Release percentage (highest observed; %) NaSCN (2M) [1]: 0% | Release percentage (highest observed; %) pH 3.6 [1]: 0%
Compound: N[C@@H](Cc1c[nH]c2ccccc12)C(=O)O [Tryptophan (COOH term), Tryptophan]

SPR angle shift after HA binding [1]: ~0.17 ° | SPR angle shift after HA binding ([1]; listed as tryptophan of —NH2 terminus): 0.170 ° | Release percentage (highest observed; %) NaSCN (2M) [1]: 15.0% | Release percentage (highest observed; %) SDS (35 mM) [1]: 0% | Release percentage (highest observed; %) pH 3.6 [1]: 0%
Compound: N[C@@H](Cc1c[nH]c2ccccc12)C(=O)O [Tryptophan (NH2 term), Tryptophan]
